According to the supplement of paper PMC10307832:

Legend:
Assay in all cases: relative viability (nuclei count vs DMSO), 5 days (fraction); higher = more cells survive
Salubrinal + Decitabine = compound: O=C(/C=C/c1ccccc1)NC(NC(=S)Nc1cccc2cccnc12)C(Cl)(Cl)Cl [Salubrinal] + Nc1ncn([C@H]2C[C@H](O)[C@@H](CO)O2)c(=O)n1 [Decitabine] (partner 2 µM)
Outline: (§1)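 For relative viability, nuclei counts in treated wells were divided by those in vehicle wells. Lung cancer cell lines had been pin-tool dosed in 1536-well plates the day after seeding and cultured for 5 days, then fixed and stained in one step (final 0.05% Triton X-100, 1% formaldehyde, 1 ug/ml Hoechst) and imaged at 4×. Doses were one drug alone or a fixed anchor-drug dose plus five library-drug doses (not always all listed) in √10 steps, and values are duplicate-plate medians.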

Salubrinal + Trametinib = compound: O=C(/C=C/c1ccccc1)NC(NC(=S)Nc1cccc2cccnc12)C(Cl)(Cl)Cl [Salubrinal] + CC(=O)Nc1cccc(-n2c(=O)n(C3CC3)c(=O)c3c(Nc4ccc(I)cc4F)n(C)c(=O)c(C)c32)c1 [Trametinib] (partner 0.02 µM)
Outline: as §1

Salubrinal + Linsitinib = compound: O=C(/C=C/c1ccccc1)NC(NC(=S)Nc1cccc2cccnc12)C(Cl)(Cl)Cl [Salubrinal] + C[C@]1(O)C[C@@H](c2nc(-c3ccc4ccc(-c5ccccc5)nc4c3)c3c(N)nccn32)C1 [Linsitinib] (partner 1 µM)
Outline: as §1

[1] = compound: Cc1ccc2nc(NCCN)c3ncc(C)n3c2c1 + CCNC(=O)c1noc(-c2cc(C(C)C)c(O)cc2O)c1-c1ccc(CN2CCOCC2)cc1 [Luminespib] (partner 0.01 µM)
Outline: as §1

| Cell Line | relative viability (Salubrinal + Decitabine; first compound 0.08 µM) | relative viability (Salubrinal + Decitabine; first compound 0.253 µM) | relative viability (Salubrinal + Decitabine; first compound 0.8 µM) | relative viability (Salubrinal + Decitabine; first compound 2.53 µM) | relative viability (Salubrinal + Decitabine; first compound 8 µM) | relative viability (Salubrinal + Trametinib; first compound 0.08 µM) | relative viability (Salubrinal + Trametinib; first compound 0.253 µM) | relative viability (Salubrinal + Trametinib; first compound 0.8 µM) | relative viability (Salubrinal + Trametinib; first compound 2.53 µM) | relative viability (Salubrinal + Trametinib; first compound 8 µM) | relative viability (Salubrinal + Linsitinib; first compound 0.08 µM) | relative viability (Salubrinal + Linsitinib; first compound 0.253 µM) | relative viability (Salubrinal + Linsitinib; first compound 0.8 µM) | relative viability (Salubrinal + Linsitinib; first compound 2.53 µM) | relative viability (Salubrinal + Linsitinib; first compound 8 µM) | relative viability ([1]; first compound 0.04 µM) | relative viability ([1]; first compound 0.1265 µM) | relative viability ([1]; first compound 0.4 µM) | relative viability ([1]; first compound 1.265 µM) | relative viability ([1]; first compound 4 µM) |
| --- | --- | --- | --- | --- | --- | --- | --- | --- | --- | --- | --- | --- | --- | --- | --- | --- | --- | --- | --- | --- |
| NCI-H647 | 0.389 | 0.452 | 0.451 | 0.443 | 0.552 | 0.619 | 0.431 | 0.524 | 0.502 | 0.433 | 1.26 | 1.26 | 1.48 | 1.07 | 1.27 | 0.163 | 0.187 | 0.155 | 0.136 | 0.188 |
| NCI-H650 | 0.288 | 0.297 | 0.352 | 0.298 | 0.323 | 1.1 | 0.94 | 1.08 | 1 | 0.976 | 0.778 | 0.772 | 0.99 | 0.959 | 0.756 | 0.891 | 0.688 | 0.583 | 0.602 | 0.698 |
| NCI-H661 | 0.602 | 0.474 | 0.57 | 0.474 | 0.536 | 0.781 | 0.523 | 0.574 | 0.577 | 0.546 | 0.701 | 0.464 | 0.509 | 0.561 | 0.464 | 0.932 | 0.94 | 0.929 | 0.98 | 0.8 |
| NCI-H727 | 0.802 | 0.876 | 0.847 | 0.837 | 0.825 | 0.375 | 0.375 | 0.383 | 0.372 | 0.403 | 0.347 | 0.33 | 0.323 | 0.326 | 0.323 | 0.36 | – | 0.358 | 0.385 | 0.4 |
| NCI-H838 | 0.493 | 0.471 | 0.462 | 0.417 | 0.464 | 0.657 | 0.678 | 0.534 | 0.518 | 0.552 | 1.25 | 0.722 | 1.08 | 1.13 | 0.98 | 0.362 | 0.344 | 0.324 | 0.3 | 0.258 |
| NCI-H1355 | 0.352 | 0.394 | 0.359 | 0.36 | 0.35 | 0.445 | 0.452 | 0.414 | 0.433 | 0.315 | 0.976 | 0.797 | 0.856 | 0.89 | 0.751 | 0.844 | 0.73 | 0.722 | 0.691 | 0.732 |
| NCI-H1395 | 0.792 | 0.686 | 0.707 | 0.67 | 0.692 | 1.15 | 1.15 | 1.18 | 0.972 | 1.02 | 1.31 | 1.12 | 1.09 | 0.998 | 1.15 | 0.828 | 0.701 | 0.664 | 0.534 | 0.761 |
| NCI-H1437 | 0.549 | 0.502 | 0.523 | 0.564 | 0.612 | 0.563 | 0.601 | 0.52 | 0.545 | 0.494 | 1.27 | 0.691 | 1.19 | 1.06 | 0.853 | 1.13 | 1.09 | 1.14 | 1.08 | 1.06 |
| NCI-H1651 | 0.654 | 0.542 | 0.681 | 0.634 | 0.661 | 0.848 | 0.833 | 0.898 | 0.829 | 0.929 | 1.09 | 0.692 | 1.06 | – | 0.968 | 0.801 | 0.805 | 0.997 | 0.836 | 0.839 |
| NCI-H1666 | 0.741 | 0.726 | 0.788 | 0.712 | 0.895 | 0.802 | 0.869 | 0.847 | 0.903 | 0.783 | 0.78 | 0.777 | 0.869 | 0.735 | 0.797 | 0.963 | 0.994 | 1.07 | 0.915 | 1.01 |
| NCI-H1734 | 0.573 | 0.51 | 0.527 | 0.474 | 0.477 | 0.704 | 0.742 | 0.787 | 0.656 | 0.597 | 0.931 | 0.858 | 1.02 | 0.976 | 0.826 | 0.217 | 0.251 | 0.197 | 0.184 | 0.176 |
| NCI-H1755 | 0.759 | 0.686 | 0.744 | 0.725 | 0.68 | 0.847 | 0.803 | 0.829 | 0.765 | 0.716 | 1.05 | 0.869 | 1.03 | 1 | 0.947 | 0.42 | 0.359 | 0.339 | 0.288 | 0.48 |
| NCI-H1792 | 0.608 | – | 0.741 | 0.49 | 0.405 | 0.533 | – | 0.524 | 0.374 | 0.631 | 0.805 | – | 0.606 | 0.482 | 0.457 | 0.49 | 0.434 | – | 0.396 | 0.432 |
| NCI-H1793 | 0.625 | 0.494 | 0.521 | 0.467 | 0.608 | 0.484 | 0.437 | 0.402 | 0.42 | 0.304 | 1.1 | 0.798 | 1.04 | 0.795 | 0.636 | 0.577 | 0.168 | 0.182 | 0.181 | 0.215 |
